# Test results taken from patent publication US20200024278A1, “COMPOSITION COMPRISING ANTIBIOTIC COMPOUND AND AN HETEROCYCLIC COMPOUND AND THEIR USE IN PREVENTING OR TREATING BACTERIAL INFECTIONS” (MUTABILIS, priority 2016, published 2020).
# Read-outs that look alike come from different tables or passages of the source.
# How the values were obtained:
# ECL P99 = assay: MIC, broth microdilution (CLSI), substance alone or ATB combined with compound at 4 or 8 μg/mL; type: cell-based, E. cloacae; conditions: Enterobacter cloacae, ECL P99
# In short: (§1)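 Antibiotic MICs were determined in presence of fixed compound at 4 or 8 μg/mL, and compound MICs alone, by visual growth inhibition. Inoculum 5·10^5 CFU/mL in ca-MHB, incubated 35 °C for 16-20 h per CLSI-M7-A7. Glucose-6-phosphate (25 μg/ml) added when fosfomycin was tested.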
# ECO UFR39 = assay: as above; type: cell-based, E. coli; conditions: Escherichia coli, ECO UFR39
# In short: as §1
# ECO 190317 = assay: as above; type: cell-based, E. coli; conditions: Escherichia coli, ECO 190317
# In short: as §1
# KPN 6299 = assay: as above; type: cell-based, K. pneumoniae; conditions: Klebsiella pneumoniae, antibiotic alone, read-out: MIC ATB alone
# In short: as §1
# KPN BAA-1898 = assay: as above; type: cell-based, K. pneumoniae; conditions: Klebsiella pneumoniae, BAA1898, KPN BAA-1898
# In short: as §1
# KPN UFR68 = assay: as above; type: cell-based, K. pneumoniae; conditions: Klebsiella pneumoniae, substance alone
# In short: as §1
# KPN UFR42 = assay: as above; type: cell-based, K. pneumoniae; conditions: Klebsiella pneumoniae; antibiotic alone; KPN UFR42; read-out: MIC ATB alone
# In short: as §1
# PAE 105250 = assay: as above; type: cell-based, P. aeruginosa; conditions: Pseudomonas aeruginosa; antibiotic alone; PAE 105250; read-out: MIC ATB alone
# In short: as §1
# PAE UFR90 [1] = assay: as above; type: cell-based, P. aeruginosa; conditions: PAE UFR90
# In short: as §1
# PAE UFR48 [2] = assay: as above; type: cell-based, P. aeruginosa; conditions: Pseudomonas aeruginosa, antibiotic alone; PAE UFR48; read-out: MIC ATB alone
# In short: as §1
# SPN 49619 = assay: as above; type: cell-based, S. pneumoniae; conditions: Streptococcus pneumoniae, SPN 49619
# In short: as §1
# SAU 29213 = assay: as above; type: cell-based, S. aureus; conditions: Staphylococcus aureus
# In short: as §1
# PAE 27853 = type: cell-based, P. aeruginosa; conditions: tntbc: Too numerous to be counted
# Protocol: (§2) Method 4: Determination of the Spontaneous Mutation Frequency of the Compounds Alone and Combined with Antibiotics.
# (§3) Bacterial isolates (Table 3) were grown overnight at 35° C. on TSA plates (Becton-Dickinson and Company) in ambient air. After 24 h of incubation, isolated bacterial colonies were added to cation-adjusted Mueller-Hinton broth (ca-MHB; Becton-Dickinson and Company) and cultured for approximately 6 h at 35° C. The pre-culture was stopped once bacteria have reached an OD600 nm of 0.5 for 200 μL. The bacterial suspension was centrifuged at 4000 rpm for 20 min. The supernatant was then discarded and the bacterial pellet was dissolved in ca-MHB to obtain 10^9 to 10^10 CFU/mL. Assays including Fosfomycin were supplemented with 25 μg/ml of Glucose-6-phosphate. 100 μL of the adjusted bacterial suspension were spread on agar plates containing different concentrations of the compounds of the present invention alone or combined with an antibacterial (Table 1). The plates were incubated for 24-48 h at 35° C. in ambient air. CFU were numerated on each agar plate containing compound. The number of resistant colonies obtained was divided by the starting inoculum to give the frequency of spontaneous resistance for a given incubation time (24 and 48 h).
# PAE UFR90 [3] = type: cell-based, P. aeruginosa; conditions: tntbc: Too numerous to be counted
# Protocol: as §2, §3
# PAE UFR48 [4] = type: cell-based, P. aeruginosa; conditions: tntbc: Too numerous to be counted
# Protocol: as §2, §3
# [5] = antibiotic alone, read-out: MIC ATB alone
smiles,measurement,setting,value
"C[C@@H]1O[C@@H]1P(=O)(O)O [FOS, Fosfomycin, reference compound]",MIC,ECL P99; [5],> 1020 µg/mL
same,MIC,"ECL P99; substance alone, read-out: MIC",> 1020 µg/mL
same,MIC,ECO UFR39; [5],4 µg/mL
same,MIC,"ECO UFR39; substance alone, read-out: MIC",4 µg/mL
same,MIC,ECO 190317; [5],0.5 µg/mL
same,MIC,"ECO 190317; substance alone, read-out: MIC",0.5 µg/mL
same,MIC,KPN 6299,> 128 µg/mL
same,MIC,KPN BAA-1898; [5],64 µg/mL
same,MIC,"KPN BAA-1898; substance alone, read-out: MIC",64 µg/mL
same,MIC,KPN UFR68,32 µg/mL
same,MIC,KPN UFR42,128 µg/mL
same,MIC,PAE 105250,256 µg/mL
same,MIC,"PAE UFR90 [1]; Pseudomonas aeruginosa, antibiotic alone, read-out: MIC ATB alone",8 µg/mL
same,MIC,"PAE UFR90 [1]; Pseudomonas aeruginosa, substance alone, read-out: MIC",16 µg/mL
same,MIC,PAE UFR90 [1]; substance alone,8 µg/mL
same,MIC,PAE UFR48 [2],16 µg/mL
same,MIC,SPN 49619; [5],32 µg/mL
same,MIC,"SPN 49619; substance alone, read-out: MIC",32 µg/mL
same,MIC,"SAU 29213; antibiotic alone, SAU 29213, read-out: MIC ATB alone",2 µg/mL
same,MIC,"SAU 29213; substance alone, SAU 29213 (MSSA 29213), read-out: MIC",2 µg/mL
same,Frequency of spontaneous resistance,PAE 27853; single agent at 4.MIC,1.2E−06
same,Frequency of spontaneous resistance,PAE 27853; single agent at 8.MIC,1.4E−06
same,Frequency of spontaneous resistance,PAE UFR90 [3]; single agent at 4.MIC,3.0E−07
same,Frequency of spontaneous resistance,PAE UFR90 [3]; single agent at 8.MIC,2.0E−07
same,Frequency of spontaneous resistance,PAE UFR48 [4]; single agent at 4.MIC,1.1E−06
same,Frequency of spontaneous resistance,PAE UFR48 [4]; single agent at 8.MIC,1.1E−06
